# In paper PMC8533149 (Biomolecules, 2021):
# Read-outs that look alike come from different tables or passages of the source.
# What was measured:
# MT4 cells = assay: Cytotoxicity test; assay type: cell-based; details: for СС50 (MT4): Table S12, nine days; for CC50: Figure 7
# Protocol: (§1) Green monkey kidney (Vero, Beach, FL, USA) cell line was maintained in 2 × Eagle MEM (“Chumakov FSC R&D IBP RAS”, Russia) with 5% FBS with L-glutamine, penicillin and streptomycin. […] HIV-1 strain NL4-3 was obtained via cell transfection with pNL4-3 3 (ARP2006, NIBSC, Potters Bar, UK).
# (§2) MT4 cell suspensions were added to the wells with compound dilutions and DMSO control (approx. 2 × 10^4 cells per well). […] All experimental procedures were performed in two replicates and were repeated two to four times. Mean and SD were calculated with OriginPro 8 (OriginLab, St. Louis, MO, USA).
# Cytotoxicity test = assay type: cell-based; details: human, Figure 7
# Protocol: as §1, §2
# [1] = tested on: human telomeric sequence Telo G4; assay: FRET melting assay, Telo; assay type: binding; details: Table S2, primary screening lead compounds, 50:1
# Protocol: (§3) To evaluate stabilizing properties of the ligands in a complex with oligodeoxyribonucleotides (ODNs) melting with fluorescence registration was used. ODN (0.5 μM) (Table 1), labeled with 6-carboxyfluorescein (FAM) and 6-carboxytetramethylrhodamine (TAMRA) at the 5′- and 3′-end, respectively, were folded in lithium cacodylate buffer (10 mM, pH 7.4) with 100 mM KCl by heating at 95 °C for 5 min and gradually cooling to r.t. GFP chromophore analogs (5 mM solution in DMSO) were diluted with the same buffer to the final concentration of 25 μM and mixed with an equal volume of 0.5 μM ODN solution resulting in a molar ratio of 50:1 (total volume was 50 μL). For the titration experiments molar ratios of 20:1 and 2:1 were used. Samples were analyzed using DTprime qPCR system (DNA-Technology LLC, Moscow, Russia). Fluorescence was registered by detection of FAM emission at 520 nm upon excitation at 495 nm in the temperature range of 30–95 °C with 1 °C/min gradient. Tm was determined using the instrument software and ΔTm was calculated relative to ODN Tm in a buffer solution containing 0.25% (v/v) DMSO. The primary and secondary screening were carried out in singlicate and triplicate, respectively.
# (§4) Initially we screened an in-house library of 440 synthetic GFP chromophore analogues for interaction with HIV-1 LTR-III sequence, which modulates HIV-1 promoter activity, using high-throughput screening (HTS) FRET melting assay (Table S1). […] We selected 11 compounds (Figure 2A), displaying stabilization in the range of 2.4–7.8 °C, and evaluated their ability to stabilize other G4-forming sequences, including human telomeric sequence Telo (one of the most common G4 structures in the human genome, having two conformations, Hybrid-1 and Hybrid-2 [36]) and model G4 […] (the G-rich Pu39 region of the P1 promoter of the oncogene BCL-2, an apoptosis regulator [37] with polymorphic conformational structure), as well as double stranded oligonucleotide (duplex) control sequence (Figure 2B, Table S2).
# [2] = tested on: HIV-1 LTR-III G-quadruplex (FAM/TAMRA-labeled LTR-III); assay: FRET melting assay, LTR-III G4; assay type: binding; details: for LTR III stabilization: Figure 7, stabilization group; for LTR-III ΔTm: Table S1 primary screening, ligand:ODN 50:1, singlicate; for LTR-III (average): Table S12, average stabilization
# Outline: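 Melting is followed by FAM fluorescence (ex 495/em 520 nm) while heating at 1 °C/min from 30 to 95 °C. Labelled ODN at 0.5 μM, pre-annealed in 10 mM Li cacodylate, 100 mM KCl, pH 7.4, mixed with ligand at 50:1 (25 μM), or 20:1 and 2:1 for titration. ΔTm is relative to the 0.25% DMSO buffer control.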
# [3] = tested on: dsDNA (double stranded control sequence); assay: FRET melting assay, duplex control; assay type: binding; details: Table S2, primary screening lead compounds, 50:1
# Protocol: as §3, §4
# [4] = tested on: Pu39 G4 (G-rich region of the P1 promoter of BCL-2); assay: FRET melting assay, Pu39; assay type: binding, human; details: Table S2, primary screening lead compounds, 50:1
# Protocol: as §3, §4
# [5] = tested on: HIV-1 strain NL4-3 in MT4 cells; assay: Cytopathic effect inhibition test; assay type: cell-based; details: HIV-1 NL4-3, MT4 cells
# Protocol: Human T cell leukemia (MT4) cell line was maintained in RPMI-1640 (“Chumakov FSC R&D IBP RAS”, Moscow, Russia) with 10% of fetal bovine serum (FBS, Invitrogen, Waltham, MA, USA), L-glutamine and gentamicin. Green monkey kidney (Vero, Beach, FL, USA) cell line was maintained in 2 × Eagle MEM (“Chumakov FSC R&D IBP RAS”, Russia) with 5% FBS with L-glutamine, penicillin and streptomycin. Cell cultures were incubated in the present of 5% CO2 at 37 °C. HIV-1 strain NL4-3 was obtained via cell transfection with pNL4-3 3 (ARP2006, NIBSC, Potters Bar, UK).
# Eight two-fold dilutions of stock solutions of the compounds in two replicates were prepared in RPMI-1640 (“Chumakov FSC R&D IBP RAS”, Russia). Compound dilutions were mixed with equal volumes of the virus suspension containing 100 CCID50 (50% tissue culture infectious dose). Control cells were treated with the same sequential concentrations of DMSO as in compound dilutions. Then, the MT4 cell suspension (approx. 2 × 10^4 cells per well) in RPMI-1640 containing 10% FBS (Invitrogen, South America) was added to experimental mixtures. A final concentration series started from 25 μM. Each experiment contained virus dose titration in the inoculate to assure the acceptable dose-range. After a nine-day incubation (5% CO2, at 37 °C), cytopathic effect (CPE) was visually accessed via microscope. EC50 values were calculated according to the Karber method. All experimental procedures were performed in two replicates and were repeated two to four times. Mean and SD were calculated with OriginPro 8 (OriginLab, St. Louis, MO, USA).
# [6] = MT4 cells (human T cell leukemia)
# [7] = Table S12, CPE, nine-day incubation, read-out: EC50
# [8] = Figure 7, read-out: Antiviral activity EC50 (HIV)
SMILES,СС50 (MT4) (MT4 cells) [µM],CC50 at 9 days (Cytotoxicity test; [6]) [µM],ΔTm Telo [1] [°C],LTR III stabilization [2] [°C],LTR-III ΔTm [2] [°C],LTR-III (average) [2],ΔTm Duplex [3] [°C],ΔTm Pu39 [4] [°C],"ΔTm LTR III ([2]; Table S2, primary screening lead compounds, 50:1) [°C]",CC50 at 9 days (Cytotoxicity test; MT4 cells) [µM],"EC50 [5, 7] [µM]",CC50 (MT4 cells) [µM],"EC50 [5, 8] [µM]","EC50 ([5]; Human immunodeficiency virus 1, NL43, 216 h, Table S12, CPE, nine-day incubation, read-out: EC50) [µM]","EC50 ([5]; Human immunodeficiency virus 1, NL43, Figure 7, read-out: Antiviral activity EC50 (HIV)) [µM]"
CCNc1ccc(/C=C2\N=C(C)N(C)C2=O)cc1 [N 683.1],> 25,> 25,-0.1±0.04,> 3,5,"3,1 °C",0±0.04,1.4±0.6,,,,,,,
COc1cc(O)ccc1/C=C1N=C(/C=C/c2ccnc3ccccc23)N(C)C\1=O [ZS 331],1.17 ± 0.55,1.2 ± 0.6,2.5±0.3,> 3,,"3,7 °C",-0.2±0.1,0.8±0.2,3.3±0.2,,,,,,
COc1ccc(O)c(/C=C2N=C(/C=C/c3ccncc3)N(C)C\2=O)c1 [N 848.3],5.5 ± 2.2,6 ± 2,1.1±0.2,> 3,2.9,"3,3 °C",0.1±0.09,0.7±0.3,,,,,,,
COc1cc(/C=C2N=C(/C=C/c3cc(Cl)nc(Cl)c3)N(C)C\2=O)cc(OC)c1O [N 960a],> 25,> 25,1±0.7,> 3,5.3,"5,2 °C",-0.5±0.07,0.5±0.01,,,,,,,
COc1cc(/C=C2N=C(/C=C/c3ccncc3)N(C)C\2=O)cc(OC)c1O [N 908],,,0.1±0.1,,2.4,,0±0.04,-0.7±0.2,,,,,,,
COc1ccc(OC)c(/C=C2N=C(/C=C/c3ccncc3)N(C)C\2=O)c1 [N 848.2],6.4 ± 1.8,6 ± 2,2.1±0.01,> 3,2.6,"3,2 °C",0.4±0.04,0.1±0.4,,,,,,,
COc1cc(/C=C2N=C(/C=C/c3cc(Br)c(O)c(Br)c3)N(CCN)C\2=O)cc(OC)c1O.Cl [AR559],> 25,,,,,"1,2 °C",,,,> 25,,,,,
COc1ccc(/C=C/C2=NC(=C\c3ccc(O)cc3OC)/C(=O)N2C)cc1 [N 1052],6.6 ± 3.1,7 ± 3,3.9±0.1,> 3,4.6,"4,5 °C",-0.1±0.04,2.1±0.2,,,,,,,
"Cc1cn([C@H]2C[C@H](N=[N+]=[N-])[C@@H](CO)O2)c(=O)[nH]c1=O [AZT, reference compound]",8.0 ± 1.5,,,,,,,,,,0.0071 ± 0.00043,,,,
COc1c(O)ccc(C=C2N=C(C=Cc3ccncc3)N(C)C2=O)c1O [N 1069],6.0 ± 2.0,,,,2.7,"2,7 °C",,,,,4.23 ± 1.75,6 ± 2,4 ± 2,,
COc1cc(O)ccc1C=C1N=C(C=Cc2c(F)c(F)c(F)c(F)c2F)N(C)C1=O [N 1049],5.2 ± 2.5,,,,1.8,"1,8 °C",,,,,2.1 ± 1.4,5 ± 3,2 ± 1,,
O=C1/C(=C/c2cccs2)N=C(/C=C/c2ccc(O)cc2)N1CCc1ccc(O)cc1 [MID 161],17.3 ± 5.7,17 ± 5,,< 1,-2.6,"-1,7 °C",,,,,,,,7.7 ± 2.2,8 ± 2
